Drawing on patent publication US9290467B2, “Cyclic amides” (Hoffmann-La Roche Inc., priority 2012, dated 2016), this text covers ring closure, isolated yield, IC50 and ring closure, yield after HPLC for 19 compounds.

Where two headings read alike, the source gives them in different places.

The conditions of series [1]: rcm bond, 16-membered ring, DCM, 50.0 °C.
For series [2], the target named is Cathepsin L (Homo sapiens (Human), UniProt P07711). The series can be described thus: Cathepsin enzyme inhibition assay (fluorogenic peptide substrate Z-Val-Val-Arg-AMC). Type of series: biochemical. The note with it: enzyme 1 nM, substrate 20 μM, pH 6.5. How it is done:
Enzyme activity is measured by observing the increase in fluorescence intensity caused by cleavage of a peptide substrate containing a fluorophore whose emission is quenched in the intact peptide.
Assay buffer: 100 mM potassium phosphate pH 6.5, EDTA-Na 5 mM, Triton X-100 0.001%, DDT 5 mM.
Enzymes (all at 1 nM): human and mouse Cathepsin S, Cat K, Cat B, Cat L
Substrate (20 μM): Z-Val-Val-Arg-AMC, except for Cat K which uses Z-Leu-Arg-AMC (both from Bachem).
AMC=7-Amino-4-Methyl-Coumarin.
Excitation 360 nm, Emission 465 nm.
Enzyme is added to the substance dilutions in 96-well microtitre plates and the reaction is started with substrate. […] IC50 are calculated by standard methods. The results are expressed in μM in the following table.

The conditions of series [3]: from C=CCOc1ccc(C[C@H](NC(=O)c2ccccc2OCC=C)C(=O)NC2(C#N)CC2)cc1; rcm bond; 16-membered ring; Grubbs II (0.3 eq); DCM; 2.88 mM; 50.0 °C.

Cathepsin L, sequence (P07711 114-333): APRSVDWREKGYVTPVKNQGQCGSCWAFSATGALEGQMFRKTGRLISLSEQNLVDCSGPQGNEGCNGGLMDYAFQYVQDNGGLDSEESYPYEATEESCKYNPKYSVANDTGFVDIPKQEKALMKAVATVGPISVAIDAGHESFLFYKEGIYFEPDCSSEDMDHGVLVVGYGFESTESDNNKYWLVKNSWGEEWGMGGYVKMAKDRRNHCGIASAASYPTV

On to `Cc1ccc2c(n1)SC/C=C/COc1ccc(cc1Cl)C[C@@H](C(=O)NC1(C#N)CC1)NC2=O` [Example 19, (E)-(S)-19-Chloro-9-methyl-5-oxo-17-oxa-12-thia-4,10-diaza-tricyclo[16.2.2.0*6,11*]docosa-1(21),6,8,10,14,18(22),19-heptaene-3-carboxylic acid (1-cyano-cyclopropyl)-amide], for which the ring closure, isolated yield in series [1] (from C=CCOc1ccc(C[C@H](NC(=O)c2ccc(C)nc2SCC=C)C(=O)NC2(C#N)CC2)cc1Cl, Grubbs II (0.3 eq)/Ti(OiPr)4 (0.6 eq), 1.15 mM) was found to be 6%. In addition, half-maximal inhibition in series [2] (IC50) required 26 nM.

As for `COC(=O)[C@@H]1Cc2ccc(c(Cl)c2)OC/C=C/CCN2CCCC2C(=O)N1` (stereo partly shown), the ring closure, isolated yield in series [1] (from C=CCCN1CCC[C@H]1C(=O)N[C@@H](Cc1ccc(OCC=C)c(Cl)c1)C(=O)OC, Grubbs II (0.3 eq)/pTsOH (2 eq, in AcOH), 2.64 mM) was determined as 87%.

`COC(=O)[C@@H]1Cc2ccc(c(Cl)c2)OC/C=C/COc2ccccc2C(=O)N1` yielded a ring closure, isolated yield in series [1] (from C=CCOc1ccc(C[C@H](NC(=O)c2ccccc2OCC=C)C(=O)OC)cc1Cl, Grubbs II (0.3 eq), 2.76 mM) of 47%.

The compound `COc1ccc2c(c1)CC/C=C/COc1ccc(cc1Cl)C[C@@H](C(=O)NC1(C#N)CC1)NC2=O` [Example 18, (E)-(S)-19-Chloro-9-methoxy-5-oxo-17-oxa-4-aza-tricyclo[16.2.2.0*6,11*]docosa-1(21),6,8,10,14,18(22),19-heptaene-3-carboxylic acid (1-cyano-cyclopropyl)-amide] returned a ring closure, isolated yield in series [1] (Grubbs II) of 48%. In addition, in series [2], half-maximal inhibition (IC50) was put at 54.7 nM.

With `N#CC1(NC(=O)[C@@H]2Cc3ccc(c(Cl)c3)OCCCCOc3cc(C(F)(F)F)ccc3C(=O)N2)CC1` [Example 23, (S)-19-Chloro-5-oxo-9-trifluoromethyl-12,17-dioxa-4-aza-tricyclo[16.2.2.0*6,11*]docosa-1(21),6,8,10,18(22),19-hexaene-3-carboxylic acid (1-cyano-cyclopropyl)-amide], the half-inhibitory concentration (IC50) in series [2] was determined as 50 nM.

`N#CC1(NC(=O)[C@@H]2Cc3ccc(c(Cl)c3)OC/C=C/CNc3ccc(Br)cc3C(=O)N2)CC1` [Example 38, (E)-(S)-8-Bromo-19-chloro-5-oxo-17-oxa-4,12-diaza-tricyclo[16.2.2.0*6,11*]docosa-1(21),6,8,10,14,18(22),19-heptaene-3-carboxylic acid (1-cyano-cyclopropyl)-amide]: the IC50 in series [2] is 10 nM.

`N#CC1(NC(=O)[C@@H]2Cc3ccc(cc3)OC/C=C/COc3ccccc3C(=O)N2)CC1` [Example 1, (E)-(S)-5-Oxo-12,17-dioxa-4-aza-tricyclo[16.2.2.0*6,11*]docosa-1(21),6(11),7,9,14,18(22),19-heptaene-3-carboxylic acid (1-cyano-cyclopropyl)-amide]: in series [3], the ring closure, yield after HPLC is 20%. Besides, the IC50 in series [2] came out at 88.5 nM.

`N#CC1(NC(=O)[C@@H]2Cc3ccc(c(Cl)c3)OCC=CCOc3ccc(Br)cc3C(=O)N2)CC1` yielded a ring closure, isolated yield in series [1] (from C=CCOc1ccc(C[C@H](NC(=O)c2cc(Br)ccc2OCC=C)C(=O)NC2(C#N)CC2)cc1Cl, Grubbs II (0.3 eq), 2.15 mM) of 53%.

In series [2], `N#CC1(NC(=O)[C@@H]2Cc3ccc(c(Cl)c3)OC/C=C/COc3ccc(C(F)(F)F)cc3C(=O)N2)CC1` [Example 34, (E)-(S)-19-Chloro-5-oxo-8-trifluoromethyl-12,17-dioxa-4-aza-tricyclo[16.2.2.0*6,11*]docosa-1(21),6,8,10,14,18(22),19-heptaene-3-carboxylic acid (1-cyano-cyclopropyl)-amide] gave an IC50 of 9 nM.

For `CC1(C)CC2C(=O)N[C@H](C(=O)NC3(C#N)CC3)Cc3ccc(c(Cl)c3)OC/C=C/CCN2C1` (mixture of isomers) [Example 15, (E)-(S)-18-Chloro-8,8-dimethyl-5-oxo-16-oxa-4,10-diaza-tricyclo[15.2.2.0*6,10*]henicosa-1(20),13,17(21),18-tetraene-3-carboxylic acid (1-cyano-cyclopropyl)-amide], the concentration for half-maximal inhibition (IC50) in series [2] came out at 168 nM.

Compound `N#CC1(NC(=O)[C@@H]2Cc3ccc(c(I)c3)OC/C=C/COc3ccc(Cl)cc3C(=O)N2)CC1` [Example 28, (E)-(S)-8-Chloro-19-iodo-5-oxo-12,17-dioxa-4-aza-tricyclo[16.2.2.0*6,11*]docosa-1(21),6,8,10,14,18(22),19-heptaene-3-carboxylic acid (1-cyano-cyclopropyl)-amide] gave an IC50 in series [2] of 11 nM.

As to `N#CC1(NC(=O)[C@@H]2Cc3ccc(c(Cl)c3)OC/C=C/COc3c(Cl)cc(F)cc3C(=O)N2)CC1` [Example 48, (E)-(S)-10,19-Dichloro-8-fluoro-5-oxo-12,17-dioxa-4-aza-tricyclo[16.2.2.0*6,11*]docosa-1(21),6,8,10,14,18(22),19-heptaene-3-carboxylic acid (1-cyano-cyclopropyl)-amide], inhibition in series [2] was half-maximal at 139 nM (IC50).

As to `N#CC1(NC(=O)[C@@H]2Cc3ccc(c(Cl)c3)OC/C=C/COc3cc4c(cc3C(=O)N2)CCCC4)CC1` [Example 27, (3E,12S)-22-chloro-N-(1-cyanocyclopropyl)-14-oxo-2,5,11,12,13,14,16,17,18,19-decahydro-7,10-ethenonaphtho[2,3-b][1,12,5]dioxazacyclohexadecine-12-carboxamide], the half-inhibitory concentration (IC50) in series [2] was 16 nM.

In series [2], `N#CC1(NC(=O)[C@@H]2Cc3ccc(c(Cl)c3)OCCCCOc3ccccc3C(=O)N2)CC1` [Example 7, (S)-19-Chloro-5-oxo-12,17-dioxa-4-aza-tricyclo[16.2.2.0*6,11*]docosa-1(21),6,8,10,18(22),19-hexaene-3-carboxylic acid (1-cyano-cyclopropyl)-amide] gave an IC50 of 96.2 nM.

Turning to `N#CC1(NC(=O)[C@@H]2Cc3ccc(c(Cl)c3)OC/C=C/COc3c(F)cc(F)cc3C(=O)N2)CC1` [Example 44, (E-Z)—(S)-19-Chloro-8,10-difluoro-5-oxo-12,17-dioxa-4-aza-tricyclo[16.2.2.0*6,11*]docosa-1(21),6,8,10,14,18(22),19-heptaene-3-carboxylic acid (1-cyano-cyclopropyl)-amide], in series [2], the half-inhibitory concentration (IC50) was 9.2 nM.

As for `N#CC1(NC(=O)[C@@H]2Cc3ccc(c(Cl)c3)OC/C=C/COc3ccc(F)cc3C(=O)N2)CC1` [Example 32, (E)-(S)-19-Chloro-8-fluoro-5-oxo-12,17-dioxa-4-aza-tricyclo[16.2.2.0*6,11*]docosa-1(21),6,8,10,14,18(22),19-heptaene-3-carboxylic acid (1-cyano-cyclopropyl)-amide], the IC50 in series [2] was determined as 16 nM.

Take `N#CC1(NC(=O)[C@@H]2Cc3ccc(cc3)OC/C=C/COc3cccc(c3)C(=O)N2)CC1` [Example 2, (E)-(S)-5-Oxo-11,16-dioxa-4-aza-tricyclo[15.2.2.1*6,10*]docosa-1(20),6,8,10(22),13,17(21),18-heptaene-3-carboxylic acid (1-cyano-cyclopropyl)-amide]: the concentration for half-maximal inhibition (IC50) in series [2] stood at 230 nM.

`CC(C)(C)OC(=O)N1CC(c2ccc3c(c2)C(=O)N[C@H](C(=O)NC2(C#N)CC2)Cc2ccc(c(Cl)c2)OCCCCO3)C1` [Example 42, 3-[(S)-19-Chloro-3-(1-cyano-cyclopropylcarbamoyl)-5-oxo-12,17-dioxa-4-aza-tricyclo[16.2.2.0*6,11*]docosa-1(21),6,8,10,18(22),19-hexaen-8-yl]-azetidine-1-carboxylic acid tert-butyl ester]: in series [2], half-maximal inhibition (IC50) required 25.5 nM.

For `N#CC1(NC(=O)[C@@H]2Cc3ccc(cc3)OC/C=C/CCc3ccccc3C(=O)N2)CC1` [Example 3, (E)-(S)-5-Oxo-17-oxa-4-aza-tricyclo[16.2.2.0%6,11&]docosa-1(21),6,8,10,14,18(22),19-heptaene-3-carboxylic acid (1-cyano-cyclopropyl)-amide], in series [2], the IC50 worked out at 77 nM.
